Data on 1 compound can be found in patent publication US12103916B2, “Antifungal compounds” (University of Kentucky Research Foundation, priority 2016, dated 2024).

Read-outs that look alike come from different tables or passages of the source. Marks after values point to notes of the source that are not given here.

The subject of experiment [1] is Candida parapsilosis ATCC 22019. Briefly: MIC determination, strain J. It counts as cell-based. To be noted: Lodderomyces parapsilosis. As to the method:
The antifungal activity of our new azole compounds 1-9 and 24-41 was first evaluated against a panel of seven Candida albicans strains (A-G), three non-albicans Candida strains […], and three Aspergillus strains (K-M) in a concentration range of 0.03-31.2 μg/mL (Table 1). […] For all of our azole derivatives we report their MIC-0 values against C. albicans ATCC 10231 (strain A) and all Aspergillus strains (K-M), which correspond to complete growth inhibition of these fungi. […] The commercially available antifungals AmB, FLC, ITC, POS, and VOR were used as reference drugs for comparison. The MIC values presented for these five control drugs were either tested herein or correspond to our previously published data^5, 16 as indicated in Table 1.
Antifungal activity in the absence or presence of serum. The antifungal activity of the newly prepared alkylated piperazine/morpholine-azole hybrids 16-28, of intermediate 14 that we used to verify that only final compounds exert antifungal activity, as well as that of alkylated piperazine/morpholine derivatives 1-10 were first evaluated against a panel of seven C. albicans (ATCC 10231 (A), ATCC 64124(R) (B), ATCC MYA-2876(S) (C), ATCC 90819(R) (D), ATCC MYA-2310(S) (E), ATCC MYA-1237(R) (F), and ATCC MYA-1003(R) (G)), three non-albicans Candida (C. glabrata ATCC 2001 (H), C. krusei ATCC 6258 (I), and C. parapsilosis ATCC 22019 (J)), and three Aspergillus (A. flavus ATCC MYA-3631 (K), A. nidulans ATCC 38163 (L), and A. terreus ATCC MYA-3633 (M)) strains using a concentration range of 0.03-31.3 μg/mL (Table 2).
Commercially available antifungal agents such as AmB, CAS, FLC, and VOR were used as positive controls for comparison. […] It is important to note that all comparisons to follow will be done by using the MIC values reported in μg/mL as the data were collected that way. However, we also present in parentheses in Table 2 the corresponding values in micromolar.
We used the commercially available antifungal agents such as AmB, caspofungin (CAS), FLC, and VOR as positive controls for comparison. For derivatives 5-16 as well as the reference drugs AmB and CAS, we reported MIC-0 values, which correspond to no visible growth. […] In this manuscript, we performed all activity comparisons by using the MIC values reported in μg/mL (Note: the corresponding MIC values are also provided in μM into parentheses in Tables 1, 2, S1, and S2).

Experiment [2] concerns cell membrane integrity of C. albicans ATCC 10231 (strain A). Briefly: Membrane permeabilization assay (propidium iodide uptake). Conditions: Ex.3 series; 4×MIC. It counts as cell-based, Candida albicans. As to the method:
FIG. 20 includes the Effect of the controls VOR (negative) and KANB (C14) (positive) as well as compounds 5-9 on the cell membrane integrity of C. albicans ATCC 10231 (strain A). […] The experiments were performed in duplicate.
PI is a membrane impermeable dye that cannot enter the intact cell unless the cell membrane is damaged. Using these compounds, we also wanted to determine how do the lengths of the alkyl side chains correlate with the membrane disruption potential of these antifungal agents.
Membrane permeabilization assay. […] Based on these findings, we assumed that the hybrids generated in this study could also potentially cause fungal death by disrupting the fungal membrane. To investigate this possible mechanism of action, we evaluated the effect of compounds 20 and 26 on fungal cell membrane integrity by using propidium iodide (PI) dye as a probe (FIG. 12). […] Afterwards, the dye binds to nucleic acid and fluoresces, which can be observed under a fluorescence microscope. […]
Therefore, we decided to study the potential effect of compounds 8 and 9 with C12 and C14 linear alkyl chains to determine the impact of chain length on membrane disruption (FIG. 20). […] The propidium iodide (PI) dye was used as a probe as it can only enter cells with compromised membrane and bind to nucleic acid to emit fluorescence, which can be observed under a fluorescence microscope. […]

Experiment [3] relates to Candida parapsilosis ATCC 22019. To be noted: Table 1; strain J; control azoles; previously reported (refs 5, 16); cited from earlier work.
In experiment [4] the test system is Aspergillus terreus ATCC MYA-3633. To be noted: Table 1; strain M; control azoles; previously reported (refs 5, 16); cited from earlier work.

As a reminder, the MIC is the smallest concentration in the dilution series that meets the test's criterion for growth inhibition. With `C[C@@H](c1ncncc1F)[C@](O)(Cn1cncn1)c1ccc(F)cc1F` [VOR, voriconazole], the MIC in experiment [1] (ATCC22019, read-out: MIC, Candida parapsilosis ATCC 22019 (J) (+10% FBS), Table 3, Ex.2 compounds, +10% FBS) was 0.015 mg/L; in experiment [1] (ATCC22019, Table 3, Ex.2 compounds, no FBS, read-out: MIC, Candida parapsilosis ATCC 22019 (J) (no FBS)), 0.015 mg/L; in experiment [1] (ATCC22019, read-out: MIC (MIC-2)) it was less than 0.03 mg/L; in experiment [1] (ATCC22019, read-out: MIC (MIC-2), in parentheses), less than 0.06 µM. In addition, in experiment [2], the “PI dye uptake by fungal cells” value is recorded as “did not allow for PI uptake”. Moreover, the “MIC (MIC-2)” value in experiment [3] is listed as <0.03^c μg/mL; in experiment [4], 0.12^c μg/mL.
